# Measurements taken from ChEMBL document CHEMBL1201862, “PubChem BioAssay data set” (2004).
#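 96-well plates; 48 h exposure; 5 concentrations. Endpoints by linear interpolation between flanking doses. Not reached: highest tested concentration assigned. The concentration for 50% growth inhibition is given as GI50.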 Active and inactive are the calls of the source. Cut-off read from the data, not from the text of the source: active = GI50 up to about 1.1 µM and inactive = higher.
# Columns and labels:
# Assay in all cases: growth of human tumour cells (NCI), 48 h
# [1] = system: A549
# [2] = system: CAKI-1
# [3] = system: HCC 2998
# [4] = system: HOP-62
# [5] = system: HOP-92
# [6] = system: HT-29
# [7] = system: MDA-MB-231
# [8] = system: MDA-MB-435
# [9] = system: MDA-N
# [10] = system: NCI-H460
# [11] = system: NCI-H522
# [12] = system: OVCAR-3
# [13] = system: SF-268
# [14] = system: SF-539
# [15] = system: SK-MEL-2
# [16] = system: SK-MEL-5
# [17] = system: SNB-75
# [18] = system: UACC-257
# [19] = system: HL-60
# [20] = system: M14
SMILES,GI50 [1],GI50 [2],GI50 [3],GI50 [4],GI50 [5],GI50 [6],GI50 [7],GI50 [8],GI50 [9],GI50 [10],GI50 [11],GI50 [12],GI50 [13],GI50 [14],GI50 [15],GI50 [16],GI50 [17],GI50 [18],GI50 [19],GI50 [20]
COC(=O)C1Cc2c([nH]c3ccccc23)-c2[nH]c3ccccc3c2CC(NC(C)=O)C(=O)NCC(=O)N1 (stereo not given),> 100 µM (inactive),> 100 µM (inactive),> 100 µM (inactive),> 100 µM (inactive),77.4 µM (inactive),> 100 µM (inactive),> 100 µM (inactive),> 100 µM (inactive),> 100 µM (inactive),> 100 µM (inactive),> 100 µM (inactive),> 100 µM (inactive),> 100 µM (inactive),> 100 µM (inactive),> 100 µM (inactive),> 100 µM (inactive),> 100 µM (inactive),> 100 µM (inactive),,
COc1ccc(OC)c2c1-c1nnnn1CCC2(C)C,,,> 100 µM (inactive),> 100 µM (inactive),> 100 µM (inactive),> 100 µM (inactive),> 100 µM (inactive),> 100 µM (inactive),> 100 µM (inactive),> 100 µM (inactive),> 100 µM (inactive),> 100 µM (inactive),> 100 µM (inactive),> 100 µM (inactive),> 100 µM (inactive),,> 100 µM (inactive),> 100 µM (inactive),> 100 µM (inactive),> 100 µM (inactive)
C[C@H](NC1=C(Cl)C(=O)c2c(O)ccc(O)c2C1=O)C(=O)Nc1ccc([N+](=O)[O-])cc1,1.71 µM (inactive),4.13 µM (inactive),3.33 µM (inactive),2.45 µM (inactive),2.08 µM (inactive),2.62 µM (inactive),1.91 µM (inactive),1.57 µM (inactive),2.4 µM (inactive),2.06 µM (inactive),2.9 µM (inactive),1.38 µM (inactive),2.16 µM (inactive),2.21 µM (inactive),3.52 µM (inactive),1.76 µM (inactive),4.04 µM (inactive),1.95 µM (inactive),,1.25 µM (inactive)
Cc1cccc(N2C(=O)C3c4[nH]c5ccccc5c4C4CCC(C(C)(C)C)CC4C3C2=O)c1C (stereo not given),47 µM (inactive),> 100 µM (inactive),> 100 µM (inactive),> 100 µM (inactive),> 100 µM (inactive),> 100 µM (inactive),19 µM (inactive),> 100 µM (inactive),> 100 µM (inactive),> 100 µM (inactive),,> 100 µM (inactive),,75.9 µM (inactive),> 100 µM (inactive),> 100 µM (inactive),,> 100 µM (inactive),16.9 µM (inactive),> 100 µM (inactive)
Cc1cc(O)c2c(c1)C(C1OC(CO)C(O)C(O)C1O)c1cc(O)cc(O)c1C2=O (stereo not given),> 100 µM (inactive),,> 100 µM (inactive),> 100 µM (inactive),> 100 µM (inactive),> 100 µM (inactive),> 100 µM (inactive),> 100 µM (inactive),> 100 µM (inactive),> 100 µM (inactive),,> 100 µM (inactive),> 100 µM (inactive),,,> 100 µM (inactive),> 100 µM (inactive),> 100 µM (inactive),> 100 µM (inactive),> 100 µM (inactive)
CCN1C(=O)C(=C/C=C/c2ccc([N+](=O)[O-])cc2)C(=O)N(CC)C1=S,> 100 µM (inactive),26.4 µM (inactive),43.4 µM (inactive),19.1 µM (inactive),18.3 µM (inactive),19.7 µM (inactive),21.3 µM (inactive),23.4 µM (inactive),24.4 µM (inactive),61.8 µM (inactive),,17.8 µM (inactive),19.3 µM (inactive),21.2 µM (inactive),23.8 µM (inactive),20.8 µM (inactive),,17.6 µM (inactive),82.6 µM (inactive),29 µM (inactive)
O=C(O)c1ccccc1-c1ccccc1C(=O)c1ccccc1,> 100 µM (inactive),> 100 µM (inactive),,> 100 µM (inactive),51.6 µM (inactive),> 100 µM (inactive),> 100 µM (inactive),> 100 µM (inactive),> 100 µM (inactive),> 100 µM (inactive),> 100 µM (inactive),> 100 µM (inactive),> 100 µM (inactive),> 100 µM (inactive),> 100 µM (inactive),> 100 µM (inactive),> 100 µM (inactive),> 100 µM (inactive),> 100 µM (inactive),> 100 µM (inactive)
CC1=NNC(=O)C1C1CC(c2c[nH]c3ccccc23)=NN=C1Cl (stereo not given),57.4 µM (inactive),> 100 µM (inactive),,> 100 µM (inactive),> 100 µM (inactive),40.9 µM (inactive),46.6 µM (inactive),48.9 µM (inactive),54.7 µM (inactive),34.6 µM (inactive),45.8 µM (inactive),62.1 µM (inactive),55.6 µM (inactive),55.6 µM (inactive),> 100 µM (inactive),42.8 µM (inactive),75 µM (inactive),> 100 µM (inactive),20 µM (inactive),53.5 µM (inactive)
O=C(N/N=C(COc1ccccc1)\N=C\c1ccncc1)c1ccncc1,> 100 µM (inactive),> 100 µM (inactive),> 100 µM (inactive),> 100 µM (inactive),68.7 µM (inactive),> 100 µM (inactive),> 100 µM (inactive),> 100 µM (inactive),> 100 µM (inactive),> 100 µM (inactive),,> 100 µM (inactive),> 100 µM (inactive),> 100 µM (inactive),> 100 µM (inactive),,34.5 µM (inactive),> 100 µM (inactive),> 100 µM (inactive),> 100 µM (inactive)
COc1cc(C=C2C(=O)NC(=S)NC2=O)cc(OC)c1OC,> 100 µM (inactive),> 100 µM (inactive),> 100 µM (inactive),> 100 µM (inactive),> 100 µM (inactive),> 100 µM (inactive),> 100 µM (inactive),> 100 µM (inactive),> 100 µM (inactive),> 100 µM (inactive),,> 100 µM (inactive),> 100 µM (inactive),> 100 µM (inactive),> 100 µM (inactive),> 100 µM (inactive),60.7 µM (inactive),> 100 µM (inactive),> 100 µM (inactive),> 100 µM (inactive)
SC1=NC2(CCCCCC2)NN1c1ccccc1,0.206 µM (active),0.218 µM (active),0.386 µM (active),,> 100 µM (inactive),1.35 µM (inactive),> 100 µM (inactive),3.61 µM (inactive),3.09 µM (inactive),0.979 µM (active),> 100 µM (inactive),9.91 µM (inactive),0.184 µM (active),,,93.3 µM (inactive),> 66.8 µM (inactive),23.9 µM (inactive),0.0867 µM (active),1.61 µM (inactive)
CCC1=NC(N/N=C/c2ccco2)=N/C1=C\c1ccccc1O,41.1 µM (inactive),> 100 µM (inactive),20.8 µM (inactive),76.4 µM (inactive),70 µM (inactive),36 µM (inactive),> 100 µM (inactive),29.5 µM (inactive),50.4 µM (inactive),14.9 µM (inactive),21.8 µM (inactive),,21.8 µM (inactive),,25.9 µM (inactive),27.2 µM (inactive),,35.2 µM (inactive),27.4 µM (inactive),35.2 µM (inactive)
CC(C)(CO)NC(=O)Nc1c(C(F)(F)F)cc(-c2ccccc2)[nH]c1=O,> 100 µM (inactive),> 100 µM (inactive),> 100 µM (inactive),> 100 µM (inactive),> 100 µM (inactive),> 100 µM (inactive),> 100 µM (inactive),> 100 µM (inactive),> 100 µM (inactive),> 100 µM (inactive),> 100 µM (inactive),29.4 µM (inactive),> 100 µM (inactive),,> 100 µM (inactive),> 100 µM (inactive),,> 100 µM (inactive),,> 100 µM (inactive)
COC(=O)[C@]12CSC[C@H]1C[C@H](c1cccc3ccccc13)N2,93.3 µM (inactive),> 100 µM (inactive),> 100 µM (inactive),> 100 µM (inactive),> 100 µM (inactive),,> 100 µM (inactive),> 100 µM (inactive),> 100 µM (inactive),44.3 µM (inactive),,> 100 µM (inactive),,> 100 µM (inactive),> 100 µM (inactive),> 100 µM (inactive),> 100 µM (inactive),> 100 µM (inactive),,> 100 µM (inactive)
Cc1ccc(OCCn2cc(Nc3ccccc3)c(=O)[nH]c2=O)cc1,> 100 µM (inactive),> 100 µM (inactive),> 100 µM (inactive),,> 100 µM (inactive),81.7 µM (inactive),> 100 µM (inactive),> 100 µM (inactive),> 100 µM (inactive),> 100 µM (inactive),> 100 µM (inactive),> 100 µM (inactive),> 100 µM (inactive),> 100 µM (inactive),> 100 µM (inactive),> 100 µM (inactive),34.3 µM (inactive),> 100 µM (inactive),,> 100 µM (inactive)
